Source: US9383364B2, “Predictive marker of DNMT1 inhibitor therapeutic efficacy and methods of using the marker” (priority 2011, dated 2016)
“Also recorded” adds a separate entry of the source. Where two headings read alike, the source gives them in different places.

Experiments:
Colo-205 xenografts = Colo-205 xenografts in nude mice; format: in vivo; details: for non-specific toxicities as judged by body weight: 25 mg/kg daily for 21 days i.v., FIG. 7C; for in vivo antitumor efficacy: 25 mg/kg/day i.v. for 21 days, FIGS. 7A and 7B
A549 xenografts = experiment: A549 lung cancer xenograft model
Text: (§1) U.S. Patent Publication No. 2008/0188570 (herein incorporated by reference in its entirety) further discloses more than 50 analogs of XB05 (BX11). […] In some embodiments, the DNMT1 inhibitor is XB05a (BX12).

global DNA methylation = experiment: global DNA methylation; format: cell-based
Text: XB05 (BX11) has activities that slightly differ from other agents in this class of compounds. This is illustrated not only by the NCI 60 data, but also by the effects of XB05 (BX11) and 5-aza on cancer cells and tumor xenografts (FIG. 7). […] XB05 (BX11) and 5-aza may inhibit DNMT activity by different mechanisms.

[1] = tested on: MDA-MB-231 breast cancer cells; experiment: RT-PCR and Western blotting of methylated (repressed) genes; format: cell-based; details: 1 μM BX11 (XB05), 72 hours, control genes GAPDH and β-actin unchanged
Protocol: Experiments described above were performed to test the effect of BX11 (XB05) on DNMT1 activity. The expression of a number of methylated (repressed) genes in MDA-MB-231 breast cancer cells was further determined using both RT-PCR and Western blotting following treatment with vehicle (control), 1 μM BX11 (XB05), or 10 μM 5-azacytidine (positive control).

[2] = tested on: GSTP1 promoter from LNCaP cells; experiment: methylation specific PCR of GSTP1 promoter; format: cell-based; details: 100 nm XB05 (BX11)
[3] = tested on: MDA-MB-231 breast cancer cells; experiment: soft agar colony formation assay; format: cell-based; details: stained 21 days after plating
Protocol: FIG. 4B are data from soft agar colony formation assays for MDA-MB-231 breast cancer cells. The cells were stained with crystal violet 21 days after plating.
FIG. 4C is a graph of the data from the soft agar colony formation assays for MDA-MB-231 breast cancer cells. The data shown are the mean±standard error (n=3).
(§2) BX11 (XB05) has potent antiproliferative and cytotoxic activity on a variety of breast cancer cell types, with some cell types having GI50 values less than or equal to 10 μM. There were several cell lines that seemed particularly sensitive to the cytotoxic effects of BX11 (BX05). […] The MDA-MB-231 cell line is derived from a triple negative breast cancer (TNBC) and MDA-MB-435 was originally described as being derived from a TNBC, although its origin is now uncertain (it is unquestionably derived from the same source as the M14 melanoma cell line and many believe it is a melanoma, although some argue that both cell lines are derived from a breast carcinoma). […] This latter assay is often used to assess activity against the subpopulation of stem-like cancer cells with enhanced tumor-initiating capacity.

[4] = tested on: DU145 and LNCaP prostate cancer cells; experiment: RT-PCR mRNA expression of silenced tumor suppressor genes; format: cell-based
[5] = tested on: several cancer cell lines, including prostate cancer; experiment: activity against cancer cell lines (Table 2); format: cell-based
HOP92 cells = experiment: SOX9 siRNA knockdown, cell number and viability; format: cell-based; details: 60 nM siRNA 24 hours, then XB05 48 hours
Protocol: In a second set of experiments, HOP92 cells were transfected for 24 hours with 60 nM siRNA against SOX9, control siRNA, or no RNA (mock). Knockdown of SOX9 was confirmed by Western blots (WB). Cells were then treated with XB05 (BX11) as indicated. After 48 hours, the cell number and viability for each sample was determined using an automated cell counter.

DNMT1 [6] = target: T1, DNMT1 (Homo sapiens, UniProt P26358); experiment: in vitro DNMT1 activity assay; format: biochemical
Text: FIG. 9A is a schematic of an exemplary in vitro DNMT activity assay.
(§3) The assays use recombinant Human DNMT1 (FIG. 5A) or nuclear extracts prepared from cells treated with XB05 (BX11) or XB05a (BX12) (FIG. 5B).
Target sequence in this assay (P26358 whole entry): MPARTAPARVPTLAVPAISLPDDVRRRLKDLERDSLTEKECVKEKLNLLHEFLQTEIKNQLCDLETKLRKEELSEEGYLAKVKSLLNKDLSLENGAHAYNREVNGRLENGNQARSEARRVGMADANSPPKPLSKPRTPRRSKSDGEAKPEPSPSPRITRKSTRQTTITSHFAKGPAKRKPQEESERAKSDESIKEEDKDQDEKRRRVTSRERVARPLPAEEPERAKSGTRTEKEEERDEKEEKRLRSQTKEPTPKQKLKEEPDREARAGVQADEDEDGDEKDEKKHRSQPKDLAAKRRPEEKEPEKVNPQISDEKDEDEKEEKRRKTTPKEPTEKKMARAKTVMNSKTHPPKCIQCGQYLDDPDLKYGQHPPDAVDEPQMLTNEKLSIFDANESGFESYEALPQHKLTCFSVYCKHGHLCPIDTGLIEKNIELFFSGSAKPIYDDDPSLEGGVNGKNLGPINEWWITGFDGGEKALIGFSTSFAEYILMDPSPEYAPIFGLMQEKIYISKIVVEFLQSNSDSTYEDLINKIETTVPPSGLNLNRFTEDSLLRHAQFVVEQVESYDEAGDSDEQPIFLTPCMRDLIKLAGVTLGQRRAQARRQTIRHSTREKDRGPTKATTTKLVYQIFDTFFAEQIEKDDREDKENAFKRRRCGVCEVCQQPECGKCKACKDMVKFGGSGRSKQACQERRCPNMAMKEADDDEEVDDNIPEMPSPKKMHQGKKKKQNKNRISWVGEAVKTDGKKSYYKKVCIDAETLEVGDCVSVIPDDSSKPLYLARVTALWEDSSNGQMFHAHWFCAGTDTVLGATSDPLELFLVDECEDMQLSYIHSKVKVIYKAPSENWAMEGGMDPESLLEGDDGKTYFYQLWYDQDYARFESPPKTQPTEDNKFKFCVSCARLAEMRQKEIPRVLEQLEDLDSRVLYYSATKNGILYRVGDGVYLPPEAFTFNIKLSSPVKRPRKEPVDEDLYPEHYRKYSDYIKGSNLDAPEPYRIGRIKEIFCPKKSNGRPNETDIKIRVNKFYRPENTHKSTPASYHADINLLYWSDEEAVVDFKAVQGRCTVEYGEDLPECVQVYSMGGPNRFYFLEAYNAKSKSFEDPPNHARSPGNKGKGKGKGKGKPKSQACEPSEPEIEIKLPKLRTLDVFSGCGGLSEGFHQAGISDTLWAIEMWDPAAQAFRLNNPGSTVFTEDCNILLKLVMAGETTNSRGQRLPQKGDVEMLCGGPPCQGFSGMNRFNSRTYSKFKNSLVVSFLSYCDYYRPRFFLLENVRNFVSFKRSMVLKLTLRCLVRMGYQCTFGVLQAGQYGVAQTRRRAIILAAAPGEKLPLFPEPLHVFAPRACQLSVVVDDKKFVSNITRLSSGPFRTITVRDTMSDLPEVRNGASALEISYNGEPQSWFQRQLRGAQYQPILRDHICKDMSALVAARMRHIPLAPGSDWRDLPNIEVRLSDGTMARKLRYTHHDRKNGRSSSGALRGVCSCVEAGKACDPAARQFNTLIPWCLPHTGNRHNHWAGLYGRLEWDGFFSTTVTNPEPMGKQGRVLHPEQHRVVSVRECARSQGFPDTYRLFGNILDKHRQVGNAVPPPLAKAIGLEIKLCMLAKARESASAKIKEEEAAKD

A549 lung cancer cells = experiment: sensitivity of A549 cells to XB05; format: cell-based
Text: The present invention is based on the discovery that SOX9 expression in cancer cells is correlated with sensitivity to cell killing by XB05 (BX11). The COMPARE algorithm (Andrianasolo et al., J. Nat. Prod. 69:576-579, 2006) was used to search for correlations between response to XB05 (BX11) and gene expression using the NCI 60 cell line screen for XB05 (BX11) and the publicly available microarray studies of the NCI 60 panel. […] High levels of SOX9 expression were associated with high sensitivity to XB05 (BX11) across the 60 cell lines, as shown in FIG. 3. […] The experiments have been repeated multiple times and differences are statistically significant (p<0.05).

[7] = tested on: MDA-MB-231 breast cancer cells; experiment: tumorsphere formation assay; format: cell-based; details: day 12 after plating
Protocol: FIG. 4D are data from tumorsphere formation assays for MDA-MB-231 breast cancer cells on day 12 after plating. The data shown are representative images from three separate experiments.
FIG. 4E is a graph of the data from the tumorsphere formation assays for MDA-MB-231 breast cancer cells on day 12 after plating.
as §2

HCT116 xenografts = experiment: HCT116 xenografts; details: in vivo
breast cancer cell lines = experiment: NCI60 data, proliferation of breast cancer cell lines; format: cell-based, human; details: all breast cancer cell lines, FIG. 4A, read-out: GI50 (cytostatic effects)
Protocol: (§4) FIG. 4A is NCI60 data showing the effect of XB05 (BX11) on proliferation of various breast cancer cell lines. All cells lines are sensitive to XB05 (BX11) cytostatic effects (GI50<100 nM), whereas a few are especially susceptible to cytotoxic effects (e.g., see 1 μM XB05 (BX11) data points).
A variety of different breast cancer cell lines were treated with 1 μM BX11, and the cytotoxic effect of 1 μM BX11 was determined. The cytotoxicity data for each breast cancer cell line was correlated with the SOX9 level present in each cell line prior to treatment.
as §2

DNMT1 [8] = target: T1, DNMT1; experiment: DNMT1 activity in nuclear extracts from treated cells; format: cell-based; parameters: endogenous in cells; details: FIG. 5B
Text: as §3
Target sequence in this assay (P26358 whole entry, species assumed): as the sequence (P26358 whole entry) above

LLC cells = experiment: clonogenic survival and MTT proliferation assays; format: cell-based; details: murine lung carcinoma, negative control
Text: (§5) (3a) results from the NCI 60 cell screen showing a good correlation between the levels of expression of SOX9 and cell death induced by XB05 (BX11); (3b) Western blot showing expression of SOX9 in sensitive cell lines; (3c) clonogenic survival assay in cells sensitive or resistant to XB05 (BX11); (3d) MTT proliferation assays in cells sensitive or resistant to XB05 (BX11).
(§6) FIG. 3B are Western blots (WB) confirming expression of Biomarker X (SOX9) protein in the sensitive cell lines. […] Where indicated, HCT116 cells (colon cancer, sensitive to XB05 (BX11)) and LLC cells (murine lung carcinoma, resistant to XB05 (BX11)) are shown as positive and negative controls, respectively. (SOX9 levels were not assayed in LLC cells because they are of mouse origin).

HCT116 cells [9] = experiment: clonogenic survival and MTT proliferation assays; format: cell-based; details: colon cancer, positive control
Text: as §5, §6

MDA-MB-435 = experiment: NCI60 breast cancer panel, cytotoxic effect; format: cell-based, human; details: 1 μM BX11, FIG. 4A
Protocol: as §4, §2

MDA-MB-231 = experiment: NCI60 breast cancer panel, cytotoxic effect; format: cell-based, human; details: 1 μM BX11, FIG. 4A
Protocol: as §4, §2

endothelial cell (HUVEC) = experiment: transwell migration and tube formation assay; format: cell-based; details: 800 nM XB05 (BX11)
HCT116 cells [10] = experiment: induction of senescence; format: cell-based; details: 96 h with 100 nM XB05 (BX11)
aqueous stability = format: physicochemical; details: addressed by cremaphor/ethanol/NaCl formulation
Text: as §1

[11] = anti-proliferative assays; format: cell-based
Text: as §1

SMILES: CCCCCC(C#CC(F)(F)Br)OC(C)=O (racemic) [XB05b (BX17)]
- non-specific toxicities as judged by body weight (Colo-205 xenografts): no evidence of any severe non-specific toxicities
- in vivo antitumor efficacy (Colo-205 xenografts): in vivo antitumor efficacy

SMILES: Nc1ncn([C@@H]2O[C@H](CO)[C@@H](O)[C@H]2O)c(=O)n1 [5-aza, 5-azacytidine, reference compound]
- maximally tolerated dose (A549 xenografts; mouse, in vivo): 6 mg/kg
- effect on global DNA methylation (global DNA methylation): causes global DNA methylation
- activity relative to XB05 (BX11) (global DNA methylation; 5-aza used at higher concentrations than XB05 (BX11)): less active

SMILES: CCCCCC(O)C#CC(F)(F)Br (centres unmarked) [XB05 (BX11)]
- expression of genes commonly silenced by methylation [1]: re-expressed
- expression of genes commonly silenced by methylation ([1]; listed as BX11 (XB05)): specific reactivation
- promoter methylation [2]: inhibits
- colony formation in soft agar [3]: inhibit
- reactivation of silenced tumor suppressor genes [4]: reactivates
- reactivation of silenced tumor suppressor genes ([4]; listed as XB05): reactivates
- potent activity against several cancer cell lines [5]: Discovered by chance to have potent activity (<100 nM) against
- tumor growth delay, alone (A549 xenografts; i.v. 25 mg/kg/day x 21, monotherapy): significant tumor growth delay
- tumor growth delay, in combination with cisplatin (A549 xenografts; i.v. 25 mg/kg/day x 21 plus cisplatin 4 x 4 mg/kg every 3 days): significant tumor growth delay
- anti-proliferative effects after knockdown of SOX9 using a specific siRNA (HOP92 cells): completely blocked
- DNMT1 activity (DNMT1 [6]; recombinant human DNMT1, FIG. 5A): inhibitory effects
- DNMT activity (DNMT1 [6]; summary statement, assay form not specified): Inhibits
- sensitivity to XB05 (BX11) (A549 lung cancer cells): modest sensitivity
- tumorsphere growth [7]: inhibit
- tumor necrosis ("hollow" tumors) (HCT116 xenografts): central tumor necrosis
- GI50 (breast cancer cell lines): < 100 nM
- DNMT1 activity (DNMT1 [8]): inhibitory effects
- sensitivity to XB05 (BX11) (LLC cells): resistant
- sensitivity to XB05 (BX11) (HCT116 cells [9]): sensitive
- cell death (MDA-MB-435): significant cell death
- cell death (MDA-MB-231): significant cell death
- endothelial cell function (transwell migration, tube formation) (endothelial cell (HUVEC)): inhibition; also recorded: inhibitory effects
- toxicity to HUVECs (endothelial cell (HUVEC)): non-toxic
- endothelial cell function (transwell migration, tube formation) (endothelial cell (HUVEC); listed as XB05): Inhibits endothelial cell activity in in vitro assays.
- senescence in cancer cells (HCT116 cells [10]): induction of senescence; also recorded: induce cellular senescence
- senescence in cancer cells (HCT116 cells [10]; listed as XB05): Induces senescence in cancer cells.
- effect on global DNA methylation (global DNA methylation): no obvious effect
- effect on global DNA methylation (global DNA methylation; listed as XB05): including no effect on global DNA methylation.

SMILES: CC/C=C\CCC(O)C#CC(F)(F)Br (centres unmarked) [XB05a (BX12)]
- aqueous stability (aqueous stability): poor
- activity in anti-proliferative assays compared to XB05 (BX11) [11]: equivalent or better activity
- antitumor activity alone compared with 5-aza alone (A549 xenografts; 5-aza at 6 mg/kg): more active
- myelotoxicity (A549 xenografts; data not shown): no significant myelotoxicity
- toxicity (body weight loss) compared with 5-aza or cisplatin (A549 xenografts; mouse, in vivo): much less toxicity
- activity in DNMT1 inhibition assays compared to XB05 (BX11) (DNMT1 [6]): equivalent or better activity
- non-specific toxicities as judged by body weight (Colo-205 xenografts): no evidence of any severe non-specific toxicities
- in vivo antitumor efficacy (Colo-205 xenografts): in vivo antitumor efficacy
